Here are results for one compound from patent publication US8952249B2, “1,4-fullerene addends in photovoltaic cells” (The Regents of the University of California, priority 2010, dated 2015).

A short description of data set [1]: Cyclic voltammetry: reduction potentials and energy of the LUMO. In kind it is physicochemical. To be noted: 1,2-dichlorobenzene, Bu4NClO4 (0.1 M), Pt wire counter electrode, 50 mV/s scan rate. An excerpt:
The synthesis of fullerenol was previously reported.^6 From fullerenol, we herein report on the syntheses of a set of derivatives by arylation as described in FIG. 1. In a typical reaction, fullerenol is reacted with a specific substrate (a substituted aryl) used as the solvent in the presence of p-toluene sulfonic acid (TsOH) as the catalyst. Following this procedure we synthesized: PEHOB (FIG. 2) (C60 functionalized with a phenyl group on C1 and an ethylhexyloxybenzene group on C4), PCVM (FIG. 3) (Phenyl on C1 and phenylvaleric acid methyl ester on C4), PTHOB (FIG. 4) (phenyl on C1 and trihexyloxyphenyl on C4), PFOH (FIG. 5) (phenyl on C1 and hydroxyl on C4); PFTFP (FIG. 6) (p-trifluorophenyl on C1 and pentafluorophenyl on C4) and ANP (FIG. 7) (phenyl on C1 and aniline on C4). 1H NMR, 13C NMR, 19F NMR and field desorption (FD) mass spectroscopy confirmed the identity of the products. The adducts were further characterized by cyclic voltammetry (CV) and UV-vis spectroscopy. […] From the first reduction potential calculated by CV we determined the energy of the LUMO. An estimated value of the HOMO was inferred from the onset of the UV-vis spectra. In order to modify the property of the derivatives, we appended (i) long alkyl chains to increase solubility and (ii) electron withdrawing or (iii) electron donating groups to stabilize or destabilize the energy of the LUMO respectively. Due to the spherical shape of C60, heteroatoms or functional groups appended on the fullerene can only affect the energy of the molecular orbitals by induction. Therefore, an electron donating group directly bound to C60 such a methoxy will […] the energy of the LUMO because of the higher electronegativity of the oxygen. […] These values are in agreement with previous reports.^8, 9 Table 1 (see below) summarizes the electrochemical data calculated for all the derivatives. […]

On the set-up of data set [2]: unit not given here. The note with it: PCBM analogues described by Hummelen et al.; cited from earlier work.

Consider `COC(=O)CCCC1(c2ccccc2)C23c4c5c6c7c8c9c(c%10c%11c2c2c%12c4c4c%13c5c5c7c7c8c8c%14c9c%10c9c%10c%11c2c2c%11c%12c4c4c%12c%13c5c5c7c7c8c8c%14c9c9c%10c2c2c%11c4c4c%12c5c7c5c8c9c2c45)C613` (stereo not shown) [PCBM, [6,6]-phenyl-C61-butyric acid methyl ester], for which, in data set [1], the E1red is −1.056 V vs Fc/Fc+, the E2red was −1.471 V vs Fc/Fc+ and the E3red is on record as −1.957 V vs Fc/Fc+. The redox potential in data set [2] is −1.08.
